The supplement of paper PMC11451515

Columns and labels:
Settings in all cases: 48 h
[1] = tested on: NOMO1; test: cell viability relative to DMSO control; higher = less cytotoxic
How it was run: (§1)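 NOMO1 or SEM cells were plated at 500 cells/well and P12-Ichikawa cells at 1000 cells/well in 1536-well plates (5 μl), after each leukemia line had been adapted for at least four passages in each medium. Pin dosing delivered library compounds in DMSO at 11 threefold concentrations, 47 μM to 0.79 nM. CellTiter-Glo One luminescence was read after 48 h at 37°C. Viability is reported as a per-plate percentage of DMSO wells, with cell-free wells as background.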

[2] = tested on: SEM cells; test: as above
How it was run: as §1

[3] = tested on: P12-Ichikawa; test: as above
How it was run: as §1

[4] = tested on: NOMO1; test: AUC of viability dose-response curve (% viability x log10 dose units); higher = less sensitive
How it was run: (§2)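 Leukemia cells adapted to each medium were seeded at 500 or 1000 cells/well in 1536-well plates and dosed with library compounds in DMSO at 11 threefold doses from 47 μM to 0.79 nM for 48 h at 37°C. CellTiter-Glo One luminescence was normalised per plate to DMSO and cell-free wells, then fitted with a four-parameter log-logistic model over log10 doses. Area under the curve was taken from this fit by the trapezoidal rule, with curves above full viability scaled and curves failing quality control removed.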

[5] = tested on: SEM cells; test: as above
How it was run: as §2

[6] = tested on: P12-Ichikawa; test: as above
How it was run: as §2

CCN(C)C(=O)Oc1cccc([C@H](C)N(C)C)c1
cell viability [%]
Settings | [1] | [2] | [3]
HPLM + 10% dialyzed FBS, 0.000781 µM | 110 | 101 | 117
HPLM + 10% dialyzed FBS, 0.00234 µM | 117 | 108 | 105
HPLM + 10% dialyzed FBS, 0.00702 µM | 124 | 104 | 104
HPLM + 10% dialyzed FBS, 0.0211 µM | 128 | 125 | 114
HPLM + 10% dialyzed FBS, 0.0632 µM | 102 | 110 | 106
HPLM + 10% dialyzed FBS, 0.19 µM | 110 | 119 | 105
HPLM + 10% dialyzed FBS, 0.569 µM | 122 | 97.4 | 107
HPLM + 10% dialyzed FBS, 1.71 µM | 95.3 | 105 | 107
HPLM + 10% dialyzed FBS, 5.12 µM | 99.9 | 99.2 | 99.5
HPLM + 10% dialyzed FBS, 15.4 µM | 109 | 101 | 96.4
HPLM + 10% dialyzed FBS, 46.1 µM | 106 | 105 | 104
RPMI 5 mM glucose + 10% FBS, 0.000781 µM | 95.9 | 121 | 106
RPMI 5 mM glucose + 10% FBS, 0.00234 µM | 102 | 114 | 104
RPMI 5 mM glucose + 10% FBS, 0.00702 µM | 99.3 | 108 | –
RPMI 5 mM glucose + 10% FBS, 0.0211 µM | 105 | 111 | 102
RPMI 5 mM glucose + 10% FBS, 0.0632 µM | 108 | 122 | 99.7
RPMI 5 mM glucose + 10% FBS, 0.19 µM | 94.4 | 90.1 | 102
RPMI 5 mM glucose + 10% FBS, 0.569 µM | 108 | 95.9 | 113
RPMI 5 mM glucose + 10% FBS, 1.71 µM | 111 | 95.9 | 101
RPMI 5 mM glucose + 10% FBS, 5.12 µM | 92.6 | 85.7 | 95.6
RPMI 5 mM glucose + 10% FBS, 15.4 µM | 112 | 105 | 102
RPMI 5 mM glucose + 10% FBS, 46.1 µM | 98.4 | 99.5 | 99.2
RPMI 5 mM glucose + 10% dialyzed FBS, 0.000781 µM | 101 | 124 | 103
RPMI 5 mM glucose + 10% dialyzed FBS, 0.00234 µM | 98.3 | 100 | 102
RPMI 5 mM glucose + 10% dialyzed FBS, 0.00702 µM | 104 | 111 | 99.3
RPMI 5 mM glucose + 10% dialyzed FBS, 0.0211 µM | 111 | 121 | 98.7
RPMI 5 mM glucose + 10% dialyzed FBS, 0.0632 µM | 109 | 110 | 103
RPMI 5 mM glucose + 10% dialyzed FBS, 0.19 µM | 97.7 | 109 | 104
RPMI 5 mM glucose + 10% dialyzed FBS, 0.569 µM | 91.6 | 121 | 104
RPMI 5 mM glucose + 10% dialyzed FBS, 1.71 µM | 87.1 | 101 | 98.2
RPMI 5 mM glucose + 10% dialyzed FBS, 5.12 µM | 105 | 111 | 93.4
RPMI 5 mM glucose + 10% dialyzed FBS, 15.4 µM | 98.5 | 110 | 94.7
RPMI 5 mM glucose + 10% dialyzed FBS, 46.1 µM | 110 | 95.6 | 86.7

AUC of viability dose-response curve
Settings | [4] | [5] | [6]
HPLM + 10% dialyzed FBS | 451 | 463 | 452
RPMI 5 mM glucose + 10% FBS | 468 | 432 | 458
RPMI 5 mM glucose + 10% dialyzed FBS | 474 | 452 | 465

CC(C)[C@H](CO)Nc1nc(Nc2cccc(Cl)c2)c2ncn(C(C)C)c2n1
cell viability [%]
Settings | [1] | [2] | [3]
HPLM + 10% dialyzed FBS, 0.000781 µM | – | 88.8 | 98.7
HPLM + 10% dialyzed FBS, 0.00234 µM | – | 88.2 | 112
HPLM + 10% dialyzed FBS, 0.00702 µM | – | 97.6 | 113
HPLM + 10% dialyzed FBS, 0.0211 µM | – | 101 | 115
HPLM + 10% dialyzed FBS, 0.0632 µM | – | 110 | 113
HPLM + 10% dialyzed FBS, 0.19 µM | – | 99.4 | 112
HPLM + 10% dialyzed FBS, 0.569 µM | – | 69.8 | 107
HPLM + 10% dialyzed FBS, 1.71 µM | – | 49.4 | 104
HPLM + 10% dialyzed FBS, 5.12 µM | – | 3.37 | 45.9
HPLM + 10% dialyzed FBS, 15.4 µM | – | 1.22 | 26.6
HPLM + 10% dialyzed FBS, 46.1 µM | – | 2.26 | 8.74
RPMI 5 mM glucose + 10% FBS, 0.000781 µM | – | 86.7 | 110
RPMI 5 mM glucose + 10% FBS, 0.00234 µM | – | 112 | 109
RPMI 5 mM glucose + 10% FBS, 0.00702 µM | – | 101 | 120
RPMI 5 mM glucose + 10% FBS, 0.0211 µM | – | 95.4 | 124
RPMI 5 mM glucose + 10% FBS, 0.0632 µM | – | 71 | 125
RPMI 5 mM glucose + 10% FBS, 0.19 µM | – | 86.4 | 115
RPMI 5 mM glucose + 10% FBS, 0.569 µM | – | 21.6 | 118
RPMI 5 mM glucose + 10% FBS, 1.71 µM | – | 4.3 | 118
RPMI 5 mM glucose + 10% FBS, 5.12 µM | – | 1.34 | 76
RPMI 5 mM glucose + 10% FBS, 15.4 µM | – | 0.473 | 42
RPMI 5 mM glucose + 10% FBS, 46.1 µM | – | 1.1 | 10.2
RPMI 5 mM glucose + 10% dialyzed FBS, 0.000781 µM | 111 | 98.6 | 97.7
RPMI 5 mM glucose + 10% dialyzed FBS, 0.00234 µM | 124 | 107 | 110
RPMI 5 mM glucose + 10% dialyzed FBS, 0.00702 µM | 127 | 91.5 | 112
RPMI 5 mM glucose + 10% dialyzed FBS, 0.0211 µM | 125 | 104 | 117
RPMI 5 mM glucose + 10% dialyzed FBS, 0.0632 µM | 124 | 106 | 115
RPMI 5 mM glucose + 10% dialyzed FBS, 0.19 µM | 112 | 93.5 | 106
RPMI 5 mM glucose + 10% dialyzed FBS, 0.569 µM | 123 | 35.7 | 93.4
RPMI 5 mM glucose + 10% dialyzed FBS, 1.71 µM | 84.2 | 18.9 | 102
RPMI 5 mM glucose + 10% dialyzed FBS, 5.12 µM | 12.6 | 1.89 | 58.5
RPMI 5 mM glucose + 10% dialyzed FBS, 15.4 µM | 6.44 | 0.704 | 18.2
RPMI 5 mM glucose + 10% dialyzed FBS, 46.1 µM | 3.06 | 1.74 | 4.68

AUC of viability dose-response curve
Settings | [4] | [5] | [6]
HPLM + 10% dialyzed FBS | 304 | 316 | 385
RPMI 5 mM glucose + 10% FBS | 342 | 255 | 404
RPMI 5 mM glucose + 10% dialyzed FBS | 351 | 284 | 387
